From US12497359B2, “Acrylamide derivatives” (NRG Therapeutics Ltd, priority 2020, dated 2025)
≈ marks a conversion by molar mass, not a printed value.

Legend:
mPTP [1] = assay: mPTP activity assay in isolated rat brain mitochondria; type: biochemical; conditions: isolated rat brain mitochondria
Protocol: MPTP activity was measured in brain mitochondria freshly isolated from female Sprague Dawley (250 to 300 gram) rats. Anaesthetised rats were perfused in-situ with ˜40 ml cold Dulbecco's Phosphate Buffered Saline (DPBS), then brains dissected and transferred into 30 ml Isolation Buffer (225 mM mannitol, 75 mM sucrose, 1 mM EGTA, adjusted to pH 7.4 with 1 M NaOH). The brain was minced using tweezers and a scalpel into ˜5 mm pieces then transferred into a 50 ml Potterton Dounce homogenization tube on ice containing 10 ml ice-cold isolation buffer (as above with addition of Complete Protease inhibitor; 1 tablet per 50 ml buffer). Homogenisation was carried out using a teflon pestle at 1800 rpm. The slurry was centrifuged at 2000 g for 10 min at 4° C., then the supernatant centrifuged at 12,000 g for 9 min. The pellet was resuspended with a dounce homogeniser in isolation buffer as above but with the addition of 0.02% digitonin, centrifuged at 12,000 g for 11 min and finally resuspended in 5 ml modified isolation buffer (as above but with EGTA reduced to 0.1 mM).
Test compounds were prepared in 384 well polypropylene assay plates as described above for the liver mitochondria assay. A stock mitochondria/Fluo5N assay solution was prepared in 5.6 ml assay buffer (120 mM mannitol, 40 mM MOPS, 5 mM KH2PO4, 60 mM KCl, 10 mM pyruvate, 2 mM malate, 2 mM MgCl2, 20 μM ADP, 1.26 μM oligomycin A, adjusted to pH 7.4) supplemented with Fluo5N pentapotassium salt (2 μM) and 1 ml mitochondria suspension, then transferred (15 μl) into the assay plate containing test compounds and incubated for 10 min at RT. Assay plates were then transferred to a FLIPR Tetra plate reader (Molecular Devices). Dye fluorescence was then measured every 3 sec for a total of 10 min. After 12 sec, a 2.5 μl bolus of Ca2+(75 μM) was added from a source plate containing 675 μM CaCl2 in FLIPR assay buffer. IC50 values for test compounds were calculated using the fluorescence value collected at the 10 min timepoint with % inhibition calculated using the DMSO control and cyclosporin A values at […].

mPTP [2] = assay: mPTP activity assay in isolated rat liver mitochondria (Ca2+ retention, Fluo5N, FLIPR); type: biochemical; conditions: isolated rat liver mitochondria; average value from multiple experiments (n ≥ 2)
In short: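 Freshly isolated female Sprague Dawley rat liver mitochondria in pH 7.4 buffer with 10 mM succinate, 1 μM rotenone and 2 μM Fluo5N, preincubated 10 min at RT with compound (30 μM to 1 nM). CaCl2 bolus (75 μM) added; IC50 from 10 min fluorescence, normalised to DMSO and 5 μM cyclosporin A.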

mPTP [3] = assay: mPTP human platelet mitochondria membrane potential flow cytometry assay; type: cell-based; conditions: stimulated human platelets
Protocol: The mPTP cell based assay was performed using a mitochondria membrane potential flow cytometry assay in stimulated human platelets. Simulation of platelets results in the rapid influx of Ca^2+ across the platelet membrane. The Ca^2+ is then sequestered by mitochondria until the threshold for mPTP opening is reached, at which point the pore opens and the mitochondrial membrane potential is dissipated. Changes in mitochondria membrane potential due to mPTP opening can be quantified in live platelets using standard mitochondrial membrane potential dyes e.g. 3,3′-dihexyloxacarbocyanine Iodide; DiOC6 (3), enabling pharmacological characterisation of mPTP inhibitors.
Fresh human blood (20 ml) was collected from consented donors into 3.2% sodium citrate. Platelets were isolated by centrifugation at 200 g for 20 min at room temperature, then the platelet rich plasma layer transferred to a fresh tube. Prostaglandin 12 is added to the platelets at a final concentration of 20 ng/ml. After centrifugation at 640 g for 10 min, the platelet rich pellet was resuspended in 4 ml HEPES assay buffer (137 mM NaCl, 2.7 mM KCl, 11.9 mM NaHCO3, 0.42 mM NaH2PO4, 1 mM MgCl2, 5.5 mM glucose, 0.1% bovine serum albumin, 10 mM HEPES adjusted to pH 7.4) and stored on ice.
Test compounds were prepared from 10 mM stocks in DMSO and serially diluted in assay buffer containing 0.4% DMSO and 25 μl transferred into a 96 well plate. Platelets were loaded with the mitochondrial membrane potential dye DiOC6 (3) (3,3′-dihexyloxacarbocyanine Iodide; Invitrogen) at 200 nM for 30 min, then 50 μl plated into each well of the 96 well plate containing diluted test compound and incubated for 15 min. Control wells included DMSO (0.1% final concentration) only or 5 μM cyclosporin A. Platelets were then stimulation with the addition of assay buffer (25 μl) containing CaCl2, alpha thrombin and Convulxin to achieve a final concentrations of 2 mM, 0.017 U/ml and 0.167 μg/ml respectively and incubated for 14 min. The reaction was stopped by the addition of 25 μl 15 mM EDTA in assay buffer. The mitochondrial membrane potential across the population of platelets in each well was then quantified by flow cytometry using a Guava easyCyte 5 Benchtop Flow Cytometer with 3000 events per well. The percentage of platelets with a depolarised mitochondrial membrane potential was calculated for each well. A pIC50 for each compound was then calculated using a standard four parameter curve fit model (GraphPad Prism).

PBS solubility = type: physicochemical; conditions: aqueous buffer, kinetic from dmso stock; PBS pH 7.4, 2 hr at 25° C.
In short: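 Compound from 10 mM DMSO stock was added in duplicate to FaSSIF or PBS (pH 7.4) and shaken at 1100 rpm for 2 hr at 25 °C. After filtration, the filtrate was quantified by LC-MS/MS with internal standard against a standard of known concentration.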

[4] = Microsomal clearance assay, rat liver microsomes; type: in vitro ADME; conditions: average value from two experiments, read-out: Rat liver microsomes intrinsic clearance (CLint)
Protocol: The microsomal stability of test compounds was evaluated using rat liver microsomes (BioIVT) with and without the cofactors nicotinamide adenine dinucleotide phosphate (NADPH) and uridine-diphosphate-glucuronic acid (UDPGA). Reactions were performed in a final volume of 250 μl pre-warmed (37° C.) 100 mM phosphate buffer containing 5 mM MgCl2, 0.025 mg/ml alamethicin, and 0.5 mg/ml rat liver microsomes. NADPH and UDPGA were included at 1 mM and 2 mM respectively, where appropriate. Reactions were started with the addition of 1 μM (final concentration) test compound. Verapamil was used as the positive control. Solutions were incubated in a water bath at 37° C. and aliquots collected at 0.5, 5, 15, 30 and 60 min. Reactions were stopped by the addition of 5 volumes of cold acetonitrile with internal standards (200 nM caffeine and 100 nM tolbutamide). Samples were centrifuged at 3220 g for 40 min. An aliquot of supernatant was diluted 1:1 In ultra-pure H20, then used for LC-MS/MS analysis. Peak areas were determined from extracted ion chromatograms. The slope value, k, was determined by linear regression of the natural logarithm of the remaining percentage of the parent drug vs. incubation time curve. The in vitro half-life (in vitro t1/2) was determined from the slope value: in vitro t1/2=0.693/k. Conversion of the in vitro t1/2 (min) into the in vitro intrinsic clearance (in vitro CLint, in μL/min/mg protein) was done using the following equation (mean of duplicate determinations): in vitro Clint=(0.693/t1/2)*(Vol of incubation (μl)/amount of protein (mg)).

SMILES: Cc1c(F)cccc1NC(=O)/C=C/c1ccc2cn[nH]c2c1 [Comparative Example 1, (E)-N-(2-methyl-3-fluorophenyl)-3-(1H-indazol-6-yl)acrylamide, reference compound]
- mPTP Rat brain pIC50 (mPTP [1]): 7.6
- mPTP Rat liver pIC50* (mPTP [2]): 8.0
- mPTP Human platelets pIC50 (mPTP [3]): 6.9

SMILES: O=C(/C=C/c1ccc2cn[nH]c2c1)NC1CCc2ccc(F)cc21 (stereo not shown) [Example 6, (E)-N-(6-fluoro-2,3-dihydro-1H-inden-1-yl)-3-(1H-indazol-6-yl)acrylamide]
- mPTP Rat liver pIC50* (mPTP [2]): 6.0
- solubility at 2 h (PBS solubility): 9.1 µM (≈ 2.92 µg/mL)
- mPTP Human platelets pIC50 (mPTP [3]): 4.9
- microsomal CLint at 1 µM [4]: 59 µL/min/mg
